Consider four molecules from patent US20170198359A1, “METHODS AND COMPOSITIONS FOR TREATMENT OR DIAGNOSIS OF CANCERS RELATED TO GABRA3” (The Wistar Institute of Anatomy and Biology, priority 2016, published 2017).

“Also recorded” adds a separate entry of the source.

For assay [1], the system named is MCF7 cells stably expressing GABRA3. Kind of assay: Transwell migration assay, MCF7-GABRA3 cells with AKT inhibitor. In kind it is cell-based, human. To be noted: different concentrations of the inhibitor vs control DMSO, FIG. 11A. The method, then: (§1) In vitro cell migration assays were performed as described previously (21, 22) using Trans-well chambers ([…] pore size; Costar). Cells were allowed to grow to subconfluency (˜75-80%) and were serum-starved for 24 h. After detachment with trypsin, cells were washed with PBS, resuspended in serum-free medium and 250 μl cell suspensions (2×10^5 cells ml−1) was added to the upper chamber. Complete medium was added to the bottom wells of the chambers. The cells that had not migrated were removed from the upper face of the filters using cotton swabs, and the cells that had migrated to the lower face of the filters were fixed with 5% glutaraldehyde solution and stained with 0.5% solution of Toluidine Blue in 2% sodium carbonate. Images of three random ×10 fields were captured from each membrane and the number of migratory cells was counted. […]
(§2) It has previously been shown that A-to-I edited GABRA3 affected the intracellular trafficking of GABRA3 (18), which is critical for the localization of GABRA3 on cell membrane. We determined the expression of GABRA3 on cell surface of breast cancer cells using FACS analysis. […] Since AKT pathway is critical in both breast cancer metastasis and therapy resistance (27-29), we determined the effect of GABRA3 on AKT activation and whether AKT pathway mediates GABRA3 functions in migration and invasion. […]

For assay [2] the test system is unchanged. Kind of assay: Matrigel invasion assay, MCF7-GABRA3 cells with AKT inhibitor. In kind it is cell-based, human. The following applies: different concentrations of the inhibitor vs control DMSO, FIG. 11B. The procedure: as §1, §2
Assay [3] concerns MDA-MB-436 cells. Kind of assay: Boyden chamber migration assay, MDA-MB-436 cells with GABRA3 inhibitors. In kind it is cell-based, human. The following applies: various concentrations (10 nM-10 μM), FIG. 12. The method, then:
(§3) MDA-MB-436 cells were treated with GABRA3 inhibitors picrotoxin or flumazenil at various concentrations (10 nM-10 μM). Cells were then subjected to Boyden chamber assays (see, e.g., Ostrander et al, Cancer Res May 1, 2007 67; 4199, which is incorporated herein by reference).

The test system of assay [4] is MDA-MB-436 cells. Nature of the assay: Boyden chamber invasion assay, MDA-MB-436 cells with GABRA3 inhibitors. The following applies: various concentrations (10 nM-10 μM), FIG. 12. The assay is classed as cell-based, human. The procedure:
as §3

The subject of the next assay is melanoma. To be noted: melanoma treatment, clinical trials; cited from earlier work.

For the molecule `NC1(c2ccc(-c3nc4ccn5c(=O)[nH]nc5c4cc3-c3ccccc3)cc2)CCC1` [MK-2206], the cell migration entry in assay [1] was “inhibited cell migration and invasion in a dose-dependent manner; also recorded: suppressed”. Further, the cell invasion result in assay [2] is “inhibited cell migration and invasion in a dose-dependent manner; also recorded: suppressed”.

In the case of `CCOC(=O)c1ncn2c1CN(C)C(=O)c1cc(F)ccc1-2` [flumazenil], the cell migration result in the assay on MDA-MB-436 cells [3] is recorded as “suppress”. Further, the cell invasion entry in the assay with MDA-MB-436 cells [4] is listed as “suppress”.

In the case of picrotoxin, the cell migration result with MDA-MB-436 cells [3] is reported as “suppress”. In addition, the cell invasion entry with MDA-MB-436 cells [4] is given as “suppress”.

Consider `Nc1nc2ccc(OC(F)(F)F)cc2s1` [Riluzole], for which, in the assay with melanoma, the anti-tumor activity entry was “significant anti-tumor activity”.
